Results on 3 compounds are retold here after patent US12139454B2, “Dimethylcyclobutanone compounds, dimethylcyclobutane compounds, and processes for preparing the same” (Shin-Etsu Chemical Co., Ltd., priority 2019, dated 2024).

Test [1] deals with Planococcus citri. In words: Field sticky-trap luring test with lures in a navel orange field. The test is classed as in vivo. To be noted: inferred from lures A and C with high contents versus lure B with low contents. The text has this:
The mixture of cis-(3-isopropenyl-2,2-dimethylcyclobutyl)methyl acetate, trans-(3-isopropenyl-2,2-dimethylcyclobutyl)methyl acetate, and (3-isopropylidene-2,2-dimethylcyclobutyl)methyl acetate obtained as in Example 35 was separated by 10% silver nitrate silica gel column chromatography (hexane:ethyl acetate=100:1). After the separation, they were mixed in a weight ratio of 100:43:4, 100:5:1, and 100:96:96. The mixtures were loaded each on a rubber cap made of isoprene each in an amount of 200 μg of cis-(3-isopropenyl-2,2-dimethylcyclobutyl)methyl acetate to prepare Lures A, B and C shown in the Table 1 below.
Lures A, B and C and the commercially available lure, Pherodis Planococcus citri (Koppert Biological Systems), were attached each to a sticky. Those and a sticky trap without a lure (blank) were placed in a navel orange field in Port Elizabeth, South Africa. Then, the number of lured and killed adult males of Planococcus citri (generic name: Citrus mealybug) in each trap was counted every other week. Each lure was changed every month.

The test system of test [2] is Planococcus citri. To be noted: J. Econ. Entomol. 97, 361 (2004); cited from earlier work.

With `C=C(C)[C@H]1C[C@H](COC(C)=O)C1(C)C` (relative stereo) [trans-(3-isopropenyl-2,2-dimethylcyclobutyl)methyl acetate], the “lure-inhibitory activity (surmised from the lure comparison)” value in the test on Planococcus citri [1] is recorded as “lure-inhibitory activity”.
For `C=C(C)[C@@H]1C[C@H](COC(C)=O)C1(C)C` [(1S,3S)-(3-isopropenyl-2,2-dimethylcyclobutyl) methyl acetate], in the test on Planococcus citri [2], the “sex pheromone activity / effect on the attraction” value is “not a sex pheromone substance, but does not disturb the attraction”.
On to `CC(=O)OCC1CC(=C(C)C)C1(C)C` (stereo not drawn) [(3-isopropylidene-2,2-dimethylcyclobutyl)methyl acetate], for which, in the test with Planococcus citri [1], the “lure-inhibitory activity (surmised from the lure comparison)” value was “lure-inhibitory activity”.
